Positions of bridges follow the written chain, without caps; N, C: chain ends. Residues, ends and D or L forms follow the SMILES beside them.
Assays:
CRP protein = biological target: T1, CRP protein (Homo sapiens, UniProt P02741); assay: One-step injection SPR (Taylor dispersion), CRP immobilized; assay type: binding
T1 construct: purchased Sigma-Aldrich
T1 sequence (P02741 19-224): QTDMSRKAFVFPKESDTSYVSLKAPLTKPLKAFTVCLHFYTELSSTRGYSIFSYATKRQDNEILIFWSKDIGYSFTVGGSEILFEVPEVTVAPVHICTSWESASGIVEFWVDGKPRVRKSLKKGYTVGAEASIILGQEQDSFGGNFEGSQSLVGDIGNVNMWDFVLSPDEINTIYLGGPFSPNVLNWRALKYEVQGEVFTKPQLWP
Experimental: (§1) SPR experiments were performed by one-step injection with the aim of evaluating and confirming the binding constant between peptide and biomarkers. Analyte concentrations of 30 μM of VEFG-114 peptide and 245 μM of CRP-1 peptide were used. The one-step experiment was based on the Taylor dispersion theory, so a unique concentration of peptide was dispersed into a running buffer directly in the flow cell in order to have a final sigmoidal profile.[41],[42] […] For the G6 peptide, the affinity against the TNFα protein was previously estimated by our research group in a recent study (data not shown).[18]
SPR experiments were performed by one-step injection. VEGF and CRP protein were immobilized at a concentration of 100 μg/mL in a 10 mM acetate buffer pH 4.5 and 3.5, respectively, (flow 10 μL/min, injection time 20 min) on a COOH1 SensiQ sensor chip, using EDC/NHS chemistry (0.4 M EDC/0.1 M NHS, flow 25 μL/min, injection time 4 min), achieving an 800 RU signal. Groups of reactive residues were deactivated by treatment with ethanolamine hydrochloride 1 M, pH 8.5. The reference channel was prepared by activation with EDC/NHS and deactivation with ethanolamine. Analyte concentrations of 30 μM for VEFG-114 peptide and 245 μM for CRP-1 peptide were used with a flow rate of 100 μL min^–1 and a 300 s dissociation time. […]

VEGF protein = biological target: T2, VEGF protein (Homo sapiens, UniProt P15692); assay: One-step injection SPR (Taylor dispersion), VEGF immobilized; assay type: binding
T2 construct: purchased Peprotech
T2 sequence (P15692 1-191 isoform P15692-4): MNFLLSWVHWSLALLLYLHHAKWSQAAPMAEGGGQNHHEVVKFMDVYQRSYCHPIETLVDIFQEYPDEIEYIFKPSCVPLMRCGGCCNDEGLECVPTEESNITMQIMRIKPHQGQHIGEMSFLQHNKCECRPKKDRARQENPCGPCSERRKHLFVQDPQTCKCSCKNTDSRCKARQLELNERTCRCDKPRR
Experimental: as §1
Reagents for peptide synthesis (Fmoc-protected amino acids, resins, activation, and deprotection reagents) were purchased from Iris Biotech GmbH (Waldershofer Str. 49–51, 95615); EDC/NHS, PDMS, and CRP (C- Reactive Protein) were from Sigma-Aldrich. VEGF (Recombinant Human VEGF165) was purchased from Peprotech. Anti-CRP (Anti-C Reactive Protein antibody (FITC) (ab19174)) and Anti-VEGF (Anti-Recombinant Human VEGF antibody (FITC)) were from Abcam. TNF-α and Anti-TNF-α (Anti-Tumor Necrosis Factor-α antibody (FITC)) were from Prospec. Solvents for peptide synthesis and HPLC analyses were purchased from Sigma-Aldrich; reversed-phase columns for peptide analysis and the LC–MS system were supplied, respectively, from Agilent Technologies and Waters (Milan, Italy). […]

Row | SMILES | dissociation value (in words) (CRP protein; 245 μM CRP-1 peptide, 1:1 interaction model) | Kd (CRP protein; CRP immobilized at 100 μg/mL (10 mM acetate pH 3.5) on COOH1 SensiQ chip, 245 μM CRP-1 analyte, 100 μL/min, 300 s dissociation, 1:1 binding model, QDAT, mean ± SD) | dissociation value (in words) (VEGF protein; 30 μM peptide, 1:1 interaction model) | Kd (VEGF protein; VEGF immobilized at 100 μg/mL (10 mM acetate pH 4.5) on COOH1 SensiQ chip, 30 μM VEGF-114 analyte, 100 μL/min, 300 s dissociation, 1:1 binding model, QDAT, mean ± SD)
1 | CC(C)C[C@H](NC(=O)[C@H](CCC(N)=O)NC(=O)[C@@H]1CSSC[C@H](NC(=O)[C@H](C)NC(=O)[C@H](Cc2c[nH]c3ccccc23)NC(=O)[C@@H](N)CCC(=O)O)C(=O)N[C@@H](CC(N)=O)C(=O)N[C@@H](CC(=O)O)C(=O)N[C@@H](CCCNC(=N)N)C(=O)NCC(=O)N[C@@H](Cc2ccccc2)C(=O)N[C@@H](CC(N)=O)C(=O)N1)C(=O)N[C@@H](CCC(N)=O)C(=O)N[C@@H](CCCNC(=N)N)C(N)=O [CRP-1] (H-EWACNDRGFNCQLQR-NH2; disulfide 4-11) | low micromolar | 12 ± 0.1 µM | – | –
2 | CC[C@H](C)[C@@H]1NC(=O)[C@H](CC(=O)O)NC(=O)[C@@H](NC(=O)[C@H](CC(N)=O)NC(=O)[C@@H]2CCCN2C(=O)[C@H](CCC(=O)O)NC(=O)[C@@H](N)C(C)C)CSSC[C@@H](C(=O)N[C@@H](Cc2ccccc2)C(=O)N[C@@H](CCC(=O)O)C(=O)N[C@@H](CCCNC(=N)N)C(=O)N[C@@H](CC(C)C)C(N)=O)NC(=O)[C@H](CCC(=O)O)NC(=O)[C@H](Cc2c[nH]c3ccccc23)NC(=O)[C@H](CCC(=O)O)NC(=O)[C@H](Cc2c[nH]c3ccccc23)NC(=O)[C@H](CCSC)NC(=O)[C@H](C(C)C)NC(=O)[C@H](Cc2c[nH]cn2)NC1=O [VEGF-114] (H-VEPNCDIHVMWEWECFERL-NH2; disulfide 5-15) | – | – | low micromolar | 10 ± 0.7 µM
